Test results: PMC5588548, “Suramin Inhibits Osteoarthritic Cartilage Degradation by Increasing Extracellular Levels of Chondroprotective Tissue Inhibitor of Metalloproteinases 3” (Molecular Pharmacology, 2017)
“Also recorded” adds a separate entry of the source. Counter-ions that a name gives are not always drawn. Like-named read-outs stand apart in the source and are kept apart here.

Assays:
human TIMP-3 = molecular target: T1, human TIMP-3 (Homo sapiens, UniProt P35625); assay: Solid-phase binding of TIMP-3 to immobilized suramin or analogs (ELISA); conditions: TIMP-3 0.4–50 nM; for EC50: plates coated with 10 µg/ml compound, one-site specific binding model, mean ± S.E., n = 3; for Kd: solid-phase binding assay, plates coated 10 µg/ml, read-out: KD value for TIMP-3 binding to immobilized compound
T1 construct: made in house; host or cells: human embryonic kidney 293 cells
T1 sequence (P35625 24-211): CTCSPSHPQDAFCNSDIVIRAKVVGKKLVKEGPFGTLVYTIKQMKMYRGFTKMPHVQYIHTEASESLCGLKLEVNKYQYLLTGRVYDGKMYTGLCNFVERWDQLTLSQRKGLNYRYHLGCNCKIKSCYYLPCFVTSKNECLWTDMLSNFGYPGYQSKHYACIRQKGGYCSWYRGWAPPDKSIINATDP
Procedure: Glycosaminoglycan-binding ELISA plates (BD Life Sciences, Swindon, UK) were coated with suramin or its analogs (10 µg/ml in Tris-buffered saline, 18 hours, 25°C) ([Mahoney et al., 2004]) and wells were blocked with 0.2% gelatin in PBS (1 hour, 37°C). Wells were washed in PBS containing 0.1% Tween 20 after this and every subsequent step. Purified FLAG-tagged human TIMP-3 (0.4–50 nM) in blocking solution was applied to wells (3 hours, 37°C), and binding was detected with anti-FLAG M2 primary antibody and anti-mouse horseradish peroxidase–conjugated secondary antibody. 3,3′,5,5′-Tetramethylbenzidine (Becton Dickinson, Swindon, UK) substrate was added, the reaction was stopped when appropriate by adding 2 N H2SO4, and absorbance at 450 nm was measured using a FLUOstar Omega microplate reader (BMG Labtech, Aylesbury, Buckinghamshire, UK). Data (mean ± S.E., n = 3 technical repeats) were analyzed using Prism 7.0b software (GraphPad Software, La Jolla, CA) and EC50 values determined using a one-site specific binding model. Flat planar dimensions of suramin analogs were estimated using ICM-Pro software (Molsoft LLC, San Diego, CA).

[1] = tested on: HTB94 chondrosarcoma cells; assay: Accumulation of endogenous TIMP-3 in medium of HTB94 cells; assay type: cell-based; conditions: 200 µg/ml compound, 36 hours, immunoblotting
Procedure: Cells (HTB94 chondrosarcoma cells, primary porcine chondrocytes, or human osteoarthritic chondrocytes) were plated overnight (6 × 10^5 cells per well of a 12-well plate) in DMEM containing 10% FCS and washed three times in serum-free DMEM.
Media were harvested, precipitated with trichloroacetic acid, and analyzed by immunoblotting using a rabbit anti–TIMP-3 polyclonal antibody (AB6000; Millipore, Hertfordshire, UK) and an alkaline phosphatase–conjugated anti-rabbit secondary antibody (Promega). […]

[2] = tested on: porcine cartilage explants; assay: Aggrecan release from porcine cartilage explants (DMMB assay, neo-epitope immunoblotting); assay type: cell-based; conditions: porcine cartilage explants; for IC50: Sus scrofa; for protection of cartilage (release of aggrecan fragments) compared with suramin: 200 µg/ml compound
Procedure: The effects of suramin on cartilage degradation were assessed using porcine or human cartilage explants. Explants were rested for 48 hours after dissection and were washed with serum-free DMEM. […]
Aggrecan degradation was analyzed by quantifying aggrecan fragments released into the conditioned media using the dimethylmethylene blue (DMMB) dye-binding assay ([Farndale et al., 1986]) (mean ± S.D., n = 3) and by immunoblotting with neo-epitope antibodies that recognize ADAMTS-cleaved but not intact aggrecan. For immunoblotting, conditioned media were deglycosylated by adding an equal volume of 200 mM sodium acetate and 50 mM Tris/HCl, pH 6.8, containing chondroitinase and β-endoglycosidase (0.05 U each; 18 hours, 37°C; Sigma-Aldrich). Aggrecan fragments were precipitated by adding five volumes of ice-cold acetone (18 hours, −20°C). After centrifugation (13,000 rpm, 10 minutes, 4°C), pellets were resuspended in SDS sample buffer, separated by electrophoresis on a 6% (v/v) polyacrylamide gel, and blotted onto polyvinylidene fluoride. Membranes were blocked with 5% (m/v) BSA in Tris-buffered saline and incubated with either a rabbit antibody that recognizes the AGEG neo-epitope generated by ADAMTS cleavage of the TAQE^1771∼^1772AGEG bond of aggrecan ([Troeberg et al., 2008]) or a mouse antibody that recognizes the ARGSV neo-epitope generated by ADAMTS cleavage of the NITEGE^373∼^374ARGSV bond ([Hughes et al., 1995]).

[3] = tested on: purinergic signaling in chondrocytes; design: method as in Varani et al., 2008; conditions: compared with suramin; ref Varani et al., 2008; cited from earlier work
[4] = retinoic acid 1 µM, 48 hours, DMMB assay

| Structure (SMILES) | EC50 (human TIMP-3) [nM] | TIMP-3 accumulation in the medium relative to suramin, defined as 100% [1] | protection of cartilage (release of aggrecan fragments) compared with suramin [2, 4] | also measured |
| --- | --- | --- | --- | --- |
| O=C(Nc1cccc(C(=O)Nc2ccc(S(=O)(=O)O)c3cc(S(=O)(=O)O)cc(S(=O)(=O)O)c23)c1)Nc1cccc(C(=O)Nc2ccc(S(=O)(=O)O)c3cc(S(=O)(=O)O)cc(S(=O)(=O)O)c23)c1 [NF023, 8,8′-[carbonylbis(imino-3,1-phenylenecarbonylimino)]bis-1,3,5-naphthalene-trisulphonic acid, hexasodium salt] | 26.5 ± 7.5 | – | – | – |
| O=C(Nc1cc(C(=O)Nc2ccc(S(=O)(=O)O)cc2)cc(C(=O)Nc2ccc(S(=O)(=O)O)cc2)c1)Nc1cc(C(=O)Nc2ccc(S(=O)(=O)O)cc2)cc(C(=O)Nc2ccc(S(=O)(=O)O)cc2)c1 [NF110, 4,4′,4′′,4′′′-[carbonylbis[imino-5,1,3-benzenetriylbis(carbonylimino)]]tetrakisbenzenesulfonic acid tetrasodium salt] | 6.88 ± 0.96 | – | – | – |
| O=C(Nc1cccc(C(=O)Nc2cc(C(=O)Nc3ccc(S(=O)(=O)O)c4cc(S(=O)(=O)O)cc(S(=O)(=O)O)c34)ccc2F)c1)Nc1cccc(C(=O)Nc2cc(C(=O)Nc3ccc(S(=O)(=O)O)c4cc(S(=O)(=O)O)cc(S(=O)(=O)O)c34)ccc2F)c1 [NF157, 8,8′-[carbonylbis[imino-3,1-phenylenecarbonylimino(4-fluoro-3,1-phenylene)carbonylimino]]bis-1,3,5-naphthalenetrisulfonic acid hexasodium salt] | 1.55 ± 0.11 | – | – | Kd (human TIMP-3): 1.5 ± 0.11 nM |
| O=C(Nc1ccc(C(=O)Nc2ccc(C(=O)Nc3ccc(S(=O)(=O)O)c4cc(S(=O)(=O)O)cc(S(=O)(=O)O)c34)cc2)cc1)Nc1ccc(C(=O)Nc2ccc(C(=O)Nc3ccc(S(=O)(=O)O)c4cc(S(=O)(=O)O)cc(S(=O)(=O)O)c34)cc2)cc1 [NF279, 8,8′-[carbonylbis(imino-4,1-phenylenecarbonylimino-4,1-phenylenecarbonylimino)]bis-1,3,5-naphthalenetrisulfonic acid hexasodium salt] | 0.85 ± 0.09 | 233% ± 73% | markedly improved activity | Kd (human TIMP-3): 0.85 ± 0.09 nM; IC50 ([2]; 48 h, retinoic acid 1 µM, 48 hours, DMMB assay, read-out: IC50 for inhibition of aggrecan release): 15.6 ± 10 µg/mL; IC50 ([2]; µg/ml value given in molar units, read-out: IC50 for chondroprotective activity): 11.6 µM; improvement of IC50 value relative to suramin [2]: 6 fold; IC50 for inhibition of aggrecan release [2, 4]: 15 µg/mL; inhibition of purinergic signaling in chondrocytes [3]: less effective than suramin |
| Cc1ccc(C(=O)Nc2cc(S(=O)(=O)[O-])cc3ccc(S(=O)(=O)[O-])cc23)cc1NC(=O)Nc1cc(C(=O)Nc2cc(S(=O)(=O)[O-])cc3ccc(S(=O)(=O)[O-])cc23)ccc1C.[Na+].[Na+].[Na+].[Na+] [NF340, 4,4′-(carbonylbis(imino-3,1-(4-methyl-phenylene)carbonylimino))bis(naphthalene-2,6-disulfonic acid) tetrasodium salt] | > 100 | minimal efficacy; also recorded: less effective | less effective | – |
| O=C(Nc1cc(C(=O)Nc2ccc(S(=O)(=O)O)cc2S(=O)(=O)O)cc(C(=O)Nc2ccc(S(=O)(=O)O)cc2S(=O)(=O)O)c1)Nc1cc(C(=O)Nc2ccc(S(=O)(=O)O)cc2S(=O)(=O)O)cc(C(=O)Nc2ccc(S(=O)(=O)O)cc2S(=O)(=O)O)c1 [NF449, 4,4′,4′′,4′′′-[carbonylbis(imino-5,1,3-benzenetriyl-bis(carbonylimino))]tetrakis-1,3-benzenedisulfonic acid, octasodium salt] | 4.66 ± 0.69 | – | – | – |
| Cc1ccc(C(=O)Nc2ccc(CP(=O)([O-])O)cc2CP(=O)([O-])O)cc1NC(=O)c1cccc(NC(=O)Nc2cccc(C(=O)Nc3cc(C(=O)Nc4ccc(CP(=O)([O-])O)cc4CP(=O)([O-])O)ccc3C)c2)c1.[Na+].[Na+].[Na+].[Na+] [NF546, 4,4′-(carbonylbis(imino-3,1-phenylene-carbonylimino-3,1-(4-methyl-phenylene)carbonylimino))-bis(1,3-xylene-α,α′-diphosphonic acid tetrasodium salt] | > 100 | – | – | – |
| Cc1ccc(C(=O)Nc2ccc(CP(=O)([O-])O)cc2CP(=O)([O-])O)cc1NC(=O)c1cccc(NC(=O)Nc2cccc(C(=O)Nc3cc(C(=O)Nc4ccc(CP(=O)([O-])O)cc4CP(=O)([O-])O)ccc3C)c2)c1.[Na+].[Na+].[Na+].[Na+] [NF546] | – | minimal efficacy; also recorded: less effective | less effective | – |
